pIC50: −log10 of the molar value.
Target: T1, full length MPS1 (Homo sapiens, UniProt P33981)
T1 sequence (P33981 1-857): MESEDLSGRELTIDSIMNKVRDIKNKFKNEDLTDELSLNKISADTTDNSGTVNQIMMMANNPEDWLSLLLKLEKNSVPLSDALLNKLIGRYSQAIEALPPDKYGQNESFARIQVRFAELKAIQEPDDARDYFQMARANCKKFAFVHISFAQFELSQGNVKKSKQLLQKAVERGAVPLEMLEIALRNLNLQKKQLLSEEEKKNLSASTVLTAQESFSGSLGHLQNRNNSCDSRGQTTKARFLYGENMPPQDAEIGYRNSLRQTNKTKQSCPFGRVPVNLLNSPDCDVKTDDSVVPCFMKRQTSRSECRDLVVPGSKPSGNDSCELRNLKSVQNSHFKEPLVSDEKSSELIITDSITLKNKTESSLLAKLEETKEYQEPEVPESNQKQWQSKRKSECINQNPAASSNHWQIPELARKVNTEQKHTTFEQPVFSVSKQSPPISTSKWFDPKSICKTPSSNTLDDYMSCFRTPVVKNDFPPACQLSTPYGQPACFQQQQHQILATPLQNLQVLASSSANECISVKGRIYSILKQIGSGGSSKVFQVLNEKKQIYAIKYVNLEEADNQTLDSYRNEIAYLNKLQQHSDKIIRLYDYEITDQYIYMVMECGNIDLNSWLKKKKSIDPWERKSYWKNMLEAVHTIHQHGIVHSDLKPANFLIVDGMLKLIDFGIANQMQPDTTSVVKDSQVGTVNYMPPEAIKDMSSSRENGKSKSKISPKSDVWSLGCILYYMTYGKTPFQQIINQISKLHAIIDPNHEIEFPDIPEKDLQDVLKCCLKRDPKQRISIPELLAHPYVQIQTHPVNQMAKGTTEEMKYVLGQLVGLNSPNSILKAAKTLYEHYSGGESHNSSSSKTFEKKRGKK
Assay: biochemical
Method: Measurement of Inhibition of MPS1 Kinase
(5 μM), ATP (10 μM), either DMSO (1% v/v) or the test compound (in the range 0.25 nM-100 μM in 1% DMSO) and assay buffer (50 mM HEPES (pH 7.0), 0.02% NaN3, 0.01% BSA, 0.1 mM Orthovandate, […], 1 μM DTT, Roche protease inhibitor). The reaction was carried out for 60 min at room temperature and stopped by the addition of buffer (10 μl) containing 20 mM EDTA, 0.05% (v/v) Brij-35, in 0.1M HEPES-buffered saline (Free acid, Sigma, UK). The plate was read on a Caliper EZ reader II (Caliper Life Sciences).
The % inhibition of the compounds is calculated relative to the means of selected control wells. […] The % inhibitions at each concentration are then fitted to a 4 parameter logistic fit: y=(a+((b−a)/(1+((c/x^d)))) where a=asym min, b=asym max, c=IC50 and d=hill coefficient

Structure (SMILES) | pIC50
Cn1cc(-c2cc3cnc(Nc4ccc(S(C)(=O)=O)cc4Cl)cc3n2C(=O)OC(C)(C)C)cn1 [Example 55] | 7.62
COc1cc(-c2cnc(C)n2C)ccc1Nc1cc2c(cn1)cc(-c1cnn(C)c1)n2C(=O)OC(C)C [Example 68] | 8.70
CC(C)OC(=O)n1c(-c2cnn(C)c2)cc2cnc(Nc3ccc(-c4cncn4C)cc3Cl)cc21 [Example 79] | 8.52
COc1ccccc1Nc1cc2c(cn1)cc(-c1cnco1)n2C(=O)OC(C)(C)C [Example 96] | 6.60
CN(C)C(=O)c1ccc(Nc2cc3c(cn2)cc(-c2cnn(C)c2)n3C(=O)OC2CCC2)c(Cl)c1 [Example 81] | 8.52
CCN(C)C(=O)c1ccc(Nc2cc3c(cn2)cc(-c2cnn(C)c2)n3C(=O)OC(C)(C)C)c(Cl)c1 [Example 39] | 8.40
COc1cc(C(=O)N2CCOCC2)ccc1Nc1cc2[nH]c(-c3cnn(C)c3)cc2cn1 [Example 118, (3-Methoxy-4-(2-(1-methyl-1H-pyrazol-4-yl)-1H-pyrrolo[3,2-c]pyridin-6-ylamino)phenyl)(morpholino)methanone] | 7.92
Cn1cc(-c2cc3cnc(Nc4ccc(C(=O)N5CCCC5)cc4Cl)cc3n2C(=O)OC(C)(C)C)cn1 [Example 40] | 8.40
CN(C)C(=O)c1ccc(Nc2cc3c(cn2)cc(-c2cnn(C)c2)n3Cc2ccc(F)cc2)c(Cl)c1 [Example 70] | 7.42
CC(C)OC(=O)n1c(-c2cnn(C)c2)cc2cnc(Nc3ccc(C(=O)N(C)C)cc3Cl)cc21 [Example 77] | 8.22
CN(C)C(=O)c1ccc(Nc2cc3c(cn2)cc(-c2cnn(C)c2)n3CC2CC2)c(Cl)c1 [Example 66] | 7.52
Cn1cc(-c2cc3cnc(Nc4ccc(-c5ccn(C)n5)cc4Cl)cc3[nH]2)cn1 [Example 124, N-(2-Chloro-4-(1-methyl-1H-pyrazol-3-yl)phenyl)-2-(1-methyl-1H-pyrazol-4-yl)-1H-pyrrolo[3,2-c]pyridin-6-amine] | 7.28
COc1cc(-c2cn(C)nc2C)ccc1Nc1cc2c(cn1)cc(-c1cnn(C)c1)n2C(=O)OC(C)C [Example 103] | 8.70
Cn1cncc1-c1ccc(Nc2cc3c(cn2)cc(-c2cnco2)n3C(=O)OC(C)(C)C)c(Cl)c1 [Example 91] | 8.22

Next, values leading:

pIC50 | Structure (SMILES)
6.82 | N#Cc1ccc(Nc2cc3[nH]c(-c4cn[nH]c4)cc3cn2)cc1 [Example 177, 4-(2-(1H-pyrazol-4-yl)-1H-pyrrolo[3,2-c]pyridin-6-ylamino) benzonitrile]
6.29 | Cn1cc(-c2cc3cnc(Nc4ccc(F)cc4Cl)cc3[nH]2)cn1 [Example 130, N-(2-Chloro-4-fluorophenyl)-2-(1-methyl-1H-pyrazol-4-yl)-1H-pyrrolo[3,2-c]pyridin-6-amine]
8.05 | c1cc(Nc2cc3[nH]c(-c4cn[nH]c4)cc3cn2)ccc1CN1CCOCC1 [Example 171, N-(4-(Morpholinomethyl)phenyl)-2-(1H-pyrazol-4-yl)-1H-pyrrolo[3,2-c]pyridin-6-amine]
6.29 | FC(F)(F)c1ccccc1Nc1cc2[nH]c(-c3cn[nH]c3)cc2cn1 [Example 164, 2-(1H-Pyrazol-4-yl)-N-(2-(trifluoromethyl)phenyl)-1H-pyrrolo[3,2-c]pyridin-6-amine]
8.40 | Cn1cc(-c2cc3cnc(Nc4ccc(-c5cncn5C)cc4Cl)cc3[nH]2)cn1 [Example 125, N-(2-Chloro-4-(1-methyl-1H-imidazol-5-yl)phenyl)-2-(1-methyl-1H-pyrazol-4-yl)-1H-pyrrolo[3,2-c]pyridin-6-amine]
7.68 | COC1CN(C(=O)c2ccc(Nc3cc4[nH]c(-c5cnn(C)c5)c(Cl)c4cn3)c(Cl)c2)C1 [Example 195, (3-chloro-4-(3-chloro-2-(1-methyl-1H-pyrazol-4-yl)-1H-pyrrolo[3,2-c]pyridin-6-ylamino)phenyl)(3-methoxyazetidin-1-yl)methanone]
6.85 | Fc1ccc(Nc2cc3[nH]c(-c4cn[nH]c4)cc3cn2)cc1 [Example 188, N-(4-fluorophenyl)-2-(1H-pyrazol-4-yl)-1H-pyrrolo[3,2-c]pyridin-6-amine]

— US9371319B2, “Pyrrolopyridineamino derivatives as MPS1 inhibitors” (priority 2011, dated 2016)
